Where two headings read alike, the source gives them in different places. Peptide text beside a SMILES is read from it.
Tests used:
[1] = target: T1, human δ opioid receptors (hDOR) (Homo sapiens, UniProt P41143); assay: [35S]GTP-γ-S binding assay, hDOR; type: biochemical; settings: for EC50: read-out: GTP hDOR EC50
T1 construct: expressed in transfected cells; host or cells: HN9.10 neuroblastoma cell line, pCDNA3, neomycin-selected clones

[2] = target: T2, rat μ opioid receptors (rMOR) (Rattus norvegicus, UniProt P33535); assay: biochemical; type: biochemical
T2 construct: expressed in transfected cells; host or cells: HN9.10 neuroblastoma cell line, pCDNA3, neomycin-selected clones

μ opioid receptors (GPI) = assay: Guinea pig isolated ileum (GPI) assay, opioid agonist;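 also: inhibition of electrically evoked contractions (0.1 Hz, 0.4 msec, supramaximal voltage) in organ baths at 37 °C, contraction height 3 min after each cumulative dose versus the 1 min before dosing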
Method: Guinea Pig Isolated Ileum Assay. […] These tissues were tied to gold chains with suture silk and mounted between platinum wire electrodes in 20 mL organ baths at a tension of 1 g and bathed in oxygenated (95:5 O2:CO2) Kreb's bicarbonate buffer at 37° C. and stimulated electrically (0.1 Hz, 0.4 msec duration) at supramaximal voltage. Following an equilibration period, compounds were added cumulatively to the bath in volumes of 14-60 μL until maximum inhibition was reached. A baseline PL-017 was constructed to determine tissue integrity and allow calculation of antagonist activity before opioid analog testing began.
For opioid data analysis, percentage inhibition was calculated using the average tissue contraction height for 1 min preceding the addition of the agonist divided by the contraction height 3 min after exposure to the dose of agonist. […] IC50 and Emax estimates were determined by computerized nonlinear least-squares analysis (the pharmacological statistics package FlashCalc: Dr. Michael Ossipov, University of Arizona, Tucson, Ariz.). […] A50 values represent the mean of not less than 4 tissues. A50 and Emax estimates were determined by computerized nonlinear least-squares analysis (FlashCalc).

δ opioid receptors (MVD) = target: T3, δ opioid receptors (MVD) (Mus musculus, UniProt P32300); assay: Mouse isolated vas deferens (MVD) assay, opioid agonist
T3 construct: from tissue; host or cells: mouse (ICR) isolated vas deferens

[3] = target: T4, Substance P receptors (guinea pig NK1) (Cavia porcellus, UniProt P30547); assay: Guinea pig isolated ileum (GPI) assay with substance P stimulation in presence of 1 μM naloxone
T4 construct: from tissue; host or cells: guinea pig (Hartley) ileum LMMP, 1 μM naloxone present

[4] = Table 39, read-out: GTP binding hDOR Emax
[5] = Table 39, read-out: GTP binding rMOR Emax
[6] = Table 32, read-out: GTP hDOR EMax
[7] = Table 32, read-out: GTP rMOR EC50
[8] = Table 32, read-out: GTP rMOR EMax
[9] = Table 35, read-out: GPI/LMMP μ-agonist IC50
[10] = GPI/LMMP SP antagonist Ke (nM), Table 35
[11] = Table 39, read-out: GPI/LMMP opioid(mu) agonist (IC50; nM)

T3 sequence (P32300 whole entry): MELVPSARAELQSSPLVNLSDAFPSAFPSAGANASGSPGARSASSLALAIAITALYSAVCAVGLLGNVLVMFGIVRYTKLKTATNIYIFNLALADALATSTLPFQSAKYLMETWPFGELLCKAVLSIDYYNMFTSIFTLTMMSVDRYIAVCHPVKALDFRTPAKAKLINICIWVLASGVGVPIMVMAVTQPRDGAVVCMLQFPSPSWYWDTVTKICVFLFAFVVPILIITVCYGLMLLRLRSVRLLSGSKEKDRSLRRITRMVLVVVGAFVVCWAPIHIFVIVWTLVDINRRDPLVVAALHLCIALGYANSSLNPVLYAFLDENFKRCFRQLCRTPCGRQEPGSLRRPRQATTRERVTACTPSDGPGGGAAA
T2 sequence (P33535 whole entry): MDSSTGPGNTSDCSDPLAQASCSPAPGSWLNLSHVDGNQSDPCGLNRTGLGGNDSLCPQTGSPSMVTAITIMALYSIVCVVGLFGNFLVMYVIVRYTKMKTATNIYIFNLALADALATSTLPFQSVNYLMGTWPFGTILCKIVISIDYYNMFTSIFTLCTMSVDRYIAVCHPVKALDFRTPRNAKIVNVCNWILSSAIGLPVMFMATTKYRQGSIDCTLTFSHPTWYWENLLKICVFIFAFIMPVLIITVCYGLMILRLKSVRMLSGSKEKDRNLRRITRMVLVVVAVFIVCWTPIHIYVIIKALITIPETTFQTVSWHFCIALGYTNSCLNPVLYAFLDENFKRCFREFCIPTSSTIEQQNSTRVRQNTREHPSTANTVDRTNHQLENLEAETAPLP
T4 sequence (P30547 whole entry): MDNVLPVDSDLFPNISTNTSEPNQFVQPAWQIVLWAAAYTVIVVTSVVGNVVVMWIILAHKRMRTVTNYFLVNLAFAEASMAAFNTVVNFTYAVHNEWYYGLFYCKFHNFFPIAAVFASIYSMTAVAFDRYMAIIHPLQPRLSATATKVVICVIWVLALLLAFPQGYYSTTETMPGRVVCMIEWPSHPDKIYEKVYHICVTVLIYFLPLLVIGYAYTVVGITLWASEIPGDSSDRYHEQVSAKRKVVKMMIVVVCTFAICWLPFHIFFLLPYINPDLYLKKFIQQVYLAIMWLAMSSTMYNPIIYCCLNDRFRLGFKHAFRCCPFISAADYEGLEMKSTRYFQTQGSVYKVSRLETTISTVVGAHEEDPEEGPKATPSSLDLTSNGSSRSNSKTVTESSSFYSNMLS
T1 sequence (P41143 whole entry): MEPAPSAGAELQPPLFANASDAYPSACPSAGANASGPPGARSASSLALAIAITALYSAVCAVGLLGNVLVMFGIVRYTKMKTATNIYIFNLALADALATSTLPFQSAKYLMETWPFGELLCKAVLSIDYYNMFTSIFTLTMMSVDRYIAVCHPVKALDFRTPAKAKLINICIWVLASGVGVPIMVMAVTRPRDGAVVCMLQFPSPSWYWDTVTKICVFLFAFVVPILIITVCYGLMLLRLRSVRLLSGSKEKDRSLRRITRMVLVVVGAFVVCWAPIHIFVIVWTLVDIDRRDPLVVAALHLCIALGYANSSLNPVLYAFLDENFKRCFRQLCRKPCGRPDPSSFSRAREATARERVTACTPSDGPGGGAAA

Structure (SMILES): CSCC[C@H](NC(=O)[C@H](Cc1ccccc1)NC(=O)CNC(=O)[C@@H](C)NC(=O)[C@@H](N)Cc1ccc(O)cc1)C(=O)N[C@H](CC(C)C)C(=O)N[C@@H](CC(C)C)C(=O)N[C@@H](Cc1c[nH]c2ccccc12)C(=O)OCc1cc(C(F)(F)F)cc(C(F)(F)F)c1 [TY021] (HELM PEPTIDE1{Y.[dA].G.F.M.[dL].L.W.[FC(F)(F)c1cc(CO[*:1])cc(C(F)(F)F)c1]}$$$$V2.0)
- Emax [1, 4]: 41.1%
- Emax [2, 5]: 51.4%

Structure (SMILES): C[C@@H](NC(=O)[C@@H](N)Cc1ccc(O)cc1)C(=O)NCC(=O)N[C@@H](Cc1ccc(Cl)cc1)C(=O)NCC(=O)N[C@@H](Cc1c[nH]c2ccccc12)C(=O)OCc1cc(C(F)(F)F)cc(C(F)(F)F)c1 [NP46] (HELM PEPTIDE1{Y.[dA].G.[O=C([C@H](Cc1ccc(Cl)cc1)N[*:1])[*:2]].G.W.[FC(F)(F)c1cc(CO[*:1])cc(C(F)(F)F)c1]}$$$$V2.0; N-terminus assumed)
- IC50 (μ opioid receptors (GPI); Table 37, read-out: GPI μ-agonist IC50): 124 nM

Structure (SMILES): C[C@@H](NC(=O)[C@@H](N)Cc1ccc(O)cc1)C(=O)NCC(=O)N[C@@H](Cc1ccccc1)C(=O)N[C@@H](Cc1c[nH]c2ccccc12)C(=O)OCc1cc(C(F)(F)F)cc(C(F)(F)F)c1 [NP36] (HELM PEPTIDE1{Y.[dA].G.F.W.[FC(F)(F)c1cc(CO[*:1])cc(C(F)(F)F)c1]}$$$$V2.0; N-terminus assumed)
- IC50 (μ opioid receptors (GPI); Table 36, read-out: GPI μ-agonist IC50): 523 nM

Structure (SMILES): C[C@@H](NC(=O)[C@H](Cc1ccccc1)NC(=O)CNC(=O)[C@@H](C)NC(=O)[C@@H](N)Cc1ccc(O)cc1)C(=O)N[C@@H](Cc1c[nH]c2ccccc12)C(=O)OCc1cc(C(F)(F)F)cc(C(F)(F)F)c1 [NP40] (HELM PEPTIDE1{Y.[dA].G.F.[dA].W.[FC(F)(F)c1cc(CO[*:1])cc(C(F)(F)F)c1]}$$$$V2.0; N-terminus assumed)
- EC50 ([1]; Table 32): 71.3 nM
- Emax [1, 6]: 89%
- EC50 [2, 7]: 93.1 nM
- Emax [2, 8]: 19%
- IC50 (δ opioid receptors (MVD)): 58 nM
- IC50 (μ opioid receptors (GPI); [9]): 528 nM
- Kb [3, 10]: 608 nM

Structure (SMILES): C[C@@H](NC(=O)[C@@H](N)Cc1ccc(O)cc1)C(=O)NCC(=O)N[C@@H](Cc1ccccc1)C(=O)NCC(=O)N[C@@H](Cc1c[nH]c2ccccc12)C(=O)OCc1cc(C(F)(F)F)cc(C(F)(F)F)c1 [NP30] (HELM PEPTIDE1{Y.[dA].G.F.G.W.[FC(F)(F)c1cc(CO[*:1])cc(C(F)(F)F)c1]}$$$$V2.0; N-terminus assumed)
- IC50 (μ opioid receptors (GPI); [9]): 25.7 nM

Structure (SMILES): Cc1cc(O)cc(C)c1C[C@H](N)C(=O)N[C@H](C)C(=O)N[C@@H](Cc1c[nH]c2ccccc12)C(=O)OCc1cc(C(F)(F)F)cc(C(F)(F)F)c1 [NP48]
- IC50 (δ opioid receptors (MVD)): 408 nM
- GPI μ-agonist, % at 1 μM (μ opioid receptors (GPI); Table 36, at 1 μM): 20.4% at 1 μM

Structure (SMILES): CSCC[C@H](N)C(=O)N1CCC[C@H]1C(=O)N[C@@H](CC(C)C)C(=O)N[C@@H](Cc1c[nH]c2ccccc12)C(=O)NCc1cc(C(F)(F)F)cc(C(F)(F)F)c1 [TY051] (HELM PEPTIDE1{M.P.L.W.[FC(F)(F)c1cc(CN[*:1])cc(C(F)(F)F)c1]}$$$$V2.0; N-terminus assumed)
- GTP binding rMOR EC50 ([2]; Table 39): no response

Structure (SMILES): CSCC[C@H](NC(=O)[C@H](Cc1ccccc1)NC(=O)CNC(=O)[C@@H](C)NC(=O)[C@@H](N)Cc1ccc(O)cc1)C(=O)N1CCC[C@H]1C(=O)N[C@@H](CC(C)C)C(=O)N[C@@H](Cc1c[nH]c2ccccc12)C(=O)N(C)Cc1cc(C(F)(F)F)cc(C(F)(F)F)c1 [TY028]
- Emax [1, 4]: 59%
- Emax [2, 5]: 52%
- IC50 (δ opioid receptors (MVD)): 11.2 nM
- IC50 (μ opioid receptors (GPI); [11]): 971 nM
- Kb ([3]; GPI/LMMP SP antagonist (Ke; nM), Table 39): 4.6 nM

Structure (SMILES): CSCC[C@H](NC(=O)[C@H](Cc1ccccc1)NC(=O)CNC(=O)[C@@H](C)NC(=O)[C@@H](N)Cc1ccc(O)cc1)C(=O)NC(C)(C)C(=O)N[C@@H](CC(C)C)C(=O)N[C@@H](Cc1c[nH]c2ccccc12)C(=O)OCc1cc(C(F)(F)F)cc(C(F)(F)F)c1 [TY022]
- Emax [2, 5]: 32%

Structure (SMILES): CCCC[C@H](NC(=O)[C@H](Cc1ccccc1)NC(=O)CNC(=O)[C@@H](C)NC(=O)[C@@H](N)Cc1c(C)cc(O)cc1C)C(=O)N1CCC[C@H]1C(=O)N[C@@H](CC(C)C)C(=O)N[C@@H](Cc1c[nH]c2ccccc12)C(=O)NCc1cc(C(F)(F)F)cc(C(F)(F)F)c1 [TY050]
- Emax [2, 5]: 45%

Structure (SMILES): CSCC[C@H](NC(=O)[C@H](Cc1ccccc1)NC(=O)CNC(=O)[C@@H](C)NC(=O)[C@@H](N)Cc1ccc(O)cc1)C(=O)N1CCC[C@@H]1C(=O)N[C@@H](CC(C)C)C(=O)N[C@@H](Cc1c[nH]c2ccccc12)C(=O)OCc1cc(C(F)(F)F)cc(C(F)(F)F)c1 [TY024]
- Emax ([1]; read-out: GTP binding hDOR Emax): 21%
- Emax ([2]; read-out: GTP binding rMOR Emax): 28%

Structure (SMILES): COc1cc(COC(=O)[C@H](Cc2c[nH]c3ccccc23)NC(=O)[C@H](CC(C)C)NC(=O)[C@@H]2CCCN2C(=O)[C@H](CCSC)NC(=O)[C@H](Cc2ccccc2)NC(=O)CNC(=O)[C@@H](C)NC(=O)[C@@H](N)Cc2ccc(O)cc2)cc(OC)c1 [TY030]
- Emax [1, 4]: 61%
- Emax [2, 5]: 59%
- IC50 (μ opioid receptors (GPI); [11]): 31 nM

Structure (SMILES): C[C@@H](NC(=O)[C@@H](N)Cc1ccc(O)cc1)C(=O)NCC(=O)N[C@@H](Cc1ccccc1)C(=O)NCCC(=O)N[C@@H](Cc1c[nH]c2ccccc12)C(=O)OCc1cc(C(F)(F)F)cc(C(F)(F)F)c1 [NP32] (HELM PEPTIDE1{Y.[dA].G.F.[bAla].W.[FC(F)(F)c1cc(CO[*:1])cc(C(F)(F)F)c1]}$$$$V2.0; N-terminus assumed)
- IC50 (μ opioid receptors (GPI); [9]): 435 nM

Structure (SMILES): CSCC[C@H](NC(=O)[C@H](Cc1ccccc1)NC(=O)CNC(=O)[C@@H](C)NC(=O)[C@@H](N)Cc1ccc(O)cc1)C(=O)N[C@@H](Cc1c[nH]c2ccccc12)C(=O)OCc1cc(C(F)(F)F)cc(C(F)(F)F)c1 [NP38] (HELM PEPTIDE1{Y.[dA].G.F.M.W.[FC(F)(F)c1cc(CO[*:1])cc(C(F)(F)F)c1]}$$$$V2.0; N-terminus assumed)
- EC50 ([1]; Table 32): 1.1 nM
- Emax [1, 6]: 36%
- EC50 [2, 7]: 0.8 nM
- Emax [2, 8]: 51%
- IC50 (δ opioid receptors (MVD)): 9.07 nM
- IC50 (μ opioid receptors (GPI); [9]): 393 nM
- Kb [3, 10]: 2 nM

Structure (SMILES): CC(C)C[C@H](NC(=O)[C@@H]1CCCN1C(=O)[C@H](Cc1ccccc1)NC(=O)[C@H](Cc1ccccc1)NC(=O)CNC(=O)[C@@H](C)NC(=O)[C@@H](N)Cc1ccc(O)cc1)C(=O)N[C@@H](Cc1c[nH]c2ccccc12)C(=O)N(C)Cc1cc(C(F)(F)F)cc(C(F)(F)F)c1 [TY017] (HELM PEPTIDE1{Y.[dA].G.F.F.P.L.W.[CN(Cc1cc(C(F)(F)F)cc(C(F)(F)F)c1)[*:1]]}$$$$V2.0; N-terminus assumed)
- Emax [1, 4]: 125%
- Emax [2, 5]: 62.4%

Structure (SMILES): CSCC[C@H](NC(=O)[C@H](Cc1ccccc1)NC(=O)CNC(=O)[C@@H](CS)NC(=O)[C@@H](N)Cc1ccc(O)cc1)C(=O)N1CCC[C@H]1C(=O)N[C@@H](CC(C)C)C(=O)N[C@@H](Cc1c[nH]c2ccccc12)C(=O)OCc1cc(C(F)(F)F)cc(C(F)(F)F)c1 [TY031] (HELM PEPTIDE1{Y.[dC].G.F.M.P.L.W.[FC(F)(F)c1cc(CO[*:1])cc(C(F)(F)F)c1]}$$$$V2.0; N-terminus assumed)
- IC50 (δ opioid receptors (MVD)): 235 nM

Structure (SMILES): CC(C)C[C@H](NC(=O)[C@@H]1CCCN1C(=O)[C@H](Cc1ccccc1)NC(=O)[C@H](Cc1ccccc1)NC(=O)CNC(=O)[C@@H](C)NC(=O)[C@@H](N)Cc1ccc(O)cc1)C(=O)N[C@@H](Cc1c[nH]c2ccccc12)C(=O)NCc1cc(C(F)(F)F)cc(C(F)(F)F)c1 [TY015] (HELM PEPTIDE1{Y.[dA].G.F.F.P.L.W.[FC(F)(F)c1cc(CN[*:1])cc(C(F)(F)F)c1]}$$$$V2.0; N-terminus assumed)
- Emax [1, 4]: 142%
- EC50 ([2]; Table 39, read-out: GTP binding rMOR EC50): 176 nM
- Emax [2, 5]: 64.4%

— patent US8026218B2, “Bifunctional analgesic compounds for opioid receptor agonists and neurokinin-1 receptor antagonists” (The University of Arizona, priority 2006, dated 2011)
